pIC50, pKi: −log10 of the molar value. Where two headings read alike, the source gives them in different places.
What was measured:
[1] = biological target: T1, SARS-CoV-2 M^pro (Severe acute respiratory syndrome coronavirus 2, UniProt P0DTD1); test: Reversibility test of M^pro interaction (SEC/dialysis, then activity and near-UV CD); assay type: biochemical; conditions: M^pro 24 μM incubated with compound 200 μM, 30 min, 25 °C, then SEC or dialysis
[2] = tested on: SARS-CoV-2; conditions: for Inhibition of the virus-caused cytopathic effect (CPE): 2 days
[3] = biological target: T1, SARS-CoV-2 M^pro; test: SARS-CoV-2 M^pro inhibition assay (FRET substrate); assay type: biochemical; conditions: 0.2 μM enzyme, 20 μM substrate, pH 7, DMSO 2.5%
Description: A continuous assay based on Förster resonance energy transfer (FRET) to measure in vitro the catalytic activity of M^pro was implemented by using the substrate (Dabcyl)KTSAVLQSGFRKME(Edans)-NH2 (Biosyntan GmbH, Berlin, Germany) The enzymatic reaction was initiated by adding substrate at 20 μM (final concentration) to the enzyme at 0.2 μM (final concentration) in a final volume of 100 μL. The reaction buffer was sodium phosphate 50 mM, pH 7, NaCl 150 mM, and DMSO 2.5%. Fluorescence emission was measured in a FluoDia T70 microplate reader (Photon Technology International, Birmingham, NJ, USA) for 20 min (excitation wavelength, 380 nm; emission wavelength, 500 nm). The initial slope of the time evolution curve of the fluorescence emission signal provided a direct quantification of the enzymatic activity.
The in vitro inhibition potency of the compounds against M^pro was assessed through the estimation of the inhibition constant, Ki, and the half-maximal inhibitory concentration, IC50, from experimental inhibition curves. Inhibition curves were obtained by measuring the enzyme activity (at fixed 0.2 μM enzyme concentration and fixed 20 μM substrate concentration) as a function of compound concentration (serial 2-fold dilution from 125 µM to 0 μM), maintaining the percentage of DMSO (2.5%) constant. The enzymatic activity was quantitated as the initial slope of the substrate fluorescence emission time evolution curve, and was plotted as a function of compound concentration. The ratio between the activity (slope) in the presence and absence of the compound provides the residual percentage of activity at a given compound concentration. Nonlinear regression analysis employing a simple inhibition model (considering inhibitor depletion due to enzyme binding) allowed us to estimate the apparent inhibition constant, Ki^app, for each compound according to Equation (1):(1) [EI]=1/2([I]T+[E]T+Kiapp−([I]T+[E]T+Kiapp)^2−4[E]T[I]T)[I]=[I]T−[EI]=1/2([I]T−[E]T−Kiapp+([I]T+[E]T+Kiapp)^2−4[E]T[I]T)v([I])/v([I]=0)=1−[EI]/[E]T=1/1+[I]/Kiapp, where [EI] is the concentration of the enzyme–inhibitor complex, [E]T and [I]T are the total concentrations of the enzyme and the inhibitor, Ki^app is the apparent inhibition constant for the inhibitors (quercetin and derivatives), [I] is the concentration of the free inhibitor, and v is the initial slope of the enzymatic activity trace at a given (free) inhibitor concentration [I] (or total inhibitor concentration [I]T). No approximation for the free inhibitor concentration (e.g., assuming to be equal to the total inhibitor concentration) was made, thus having general validity for any total enzyme and inhibitor concentration and any value of the inhibition constant (even for tight-binding inhibitors). In addition, if the inhibitor acts through a purely competitive mechanism, the previous equation can be substituted by Equation (2):(2) v([I])/v([I]=0)=1/1+[I]/Kiapp=1/1+[I]/Ki(1+[S]/Km), where Ki is the intrinsic (i.e., substrate concentration-independent) inhibition constant, Km is the Michaelis–Menten constant for the enzyme–substrate interaction, and [S] is the substrate concentration. Because Km and [S] are known, the intrinsic inhibition constant can be determined. Furthermore, approximating the free compound concentration by the total compound concentration and neglecting ligand depletion, the Ki^app in Equation (2) is equivalent to the IC50, as reported in Table 3. However, it should be emphasized that the IC50 is an assay-dependent inhibition potency index (among other parameters, it depends on the enzyme and substrate concentrations, as well as on the Km); thus, the intrinsic inhibition constant is a better inhibition potency index. Uncertainties have been reported as 95% profile likelihood asymmetric confidence intervals, as especially recommended for equilibrium constants (i.e., binding association/dissociation constants and inhibition constants).

[4] = tested on: Vero cells; test: XTT cell viability assay; assay type: cell-based, Cercopithecus aethiops; conditions: quercetin 500–100 µM; 2d 100–10 µM; Figure S2
Description: Cell viability was evaluated using the XTT Cell Viability Assay kit (Biological Industries, Cromwell, CT, USA) according to the manufacturer’s protocol. Vero, A549ACE2+, CRFK, HRT-18, LLC-MK2, and HSF cells were cultured on 96-well plates. Cells were incubated with ACF for 24 h at 37 °C in an atmosphere containing 5% CO2. After incubation, the medium was discarded and 100 µL of fresh medium was added to each well. Then, 25 µL of the activated 2,3-bis-(2-methoxy-4-nitro-5-sulphenyl)-(2H)-tetrazolium-5-carboxanilide (XTT) solution was added and samples were incubated for 2 h at 37 °C. The absorbance (λ = 450 nm) was measured using a Spectra MAX 250 spectrophotometer (Molecular Devices, San Jose, CA, USA). The obtained results were normalized to the control samples, where cell viability was set to 100%.

[5] = tested on: SARS-CoV-2; test: Inhibition of SARS-CoV-2 replication in Vero cells by RT-qPCR; assay type: cell-based
[6] = tested on: SARS-CoV-2; design: method as in PMID 32272481; conditions: cited from earlier work
[7] = tested on: SARS-CoV-2 main protease (M^pro or 3CL^pro); conditions: cited from earlier work

## Cc1ccc([Se]c2c(O)cc(O)c3c(=O)c(O)c(-c4ccc(O)c(O)c4)oc23)cc1 [2d, 2-(3,4-Dihydroxyphenyl)-3,5,7-trihydroxy-8-(p-tolylselanyl)-4H-chromen-4-one]
[1]
  reversibility of the interaction with M^pro: reversible interaction
other
  melting point: 203 to 206 °C
[2]; 10 µM, Vero cells
  Inhibition of the virus-caused cytopathic effect (CPE): +
[2]; 25 µM, Vero cells
  Inhibition of the virus-caused cytopathic effect (CPE): +
[2]; 50 µM, Vero cells
  Inhibition of the virus-caused cytopathic effect (CPE): +
[2]; 75 µM, Vero cells
  Inhibition of the virus-caused cytopathic effect (CPE): +
[2]; 100 µM, Vero cells
  Inhibition of the virus-caused cytopathic effect (CPE): +
[2]; 100 µM, in half of experiments
  morphological changes of cells in the infection model: morphological changes were observed
[2]; Vero cells, Figure S3
  maximal non-toxic concentration: 100 µM
[2]; tested at 100, 75, 50, 25 and 10 µM, judged at non-toxic concentrations
  SARS-CoV-2-related CPE reduction (in words): inhibited the development of the CPE
[3]; equivalent to Ki^app
  pIC50: 4.96
[3]; intrinsic inhibition constant
  pKi: 5.42
[4]
  cytotoxicity on Vero cells (in words): none of the tested concentrations exhibited cytotoxicity
[5]; Severe acute respiratory syndrome coronavirus 2, Vero, 48 h, read-out: IC50 of SARS-CoV-2 replication (RT-qPCR)
  pIC50: 5.10
[5]; log of concentration in µM, Figure S4
  logIC50 of SARS-CoV-2 replication (RT-qPCR): 0,8968
[5]; ratio of antiviral IC50 values
  improvement of the antiviral potency versus quercetin: 24 fold

## O=c1c2ccccc2[se]n1-c1ccccc1 [ebselen]
[6]
  Antiviral activity observed in cell models, in words: low micromolar levels
[7]
  M^pro half-maximal inhibitory concentration (IC50), in words: nanomolar range

## C[C@@H]1O[C@@H](OC[C@H]2O[C@@H](Oc3c(-c4ccc(O)c(O)c4)oc4cc(O)cc(O)c4c3=O)[C@H](O)[C@@H](O)[C@@H]2O)[C@H](O)[C@H](O)[C@H]1O [rutin]
[7]
  M^pro inhibition potency relative to quercetin, in words: slightly lower potency
